# Experimental data published in patent US11014898B1, “Benzothiazepine compounds and their use as bile acid modulators” (Albireo AB, priority 2020, dated 2021).
# Target: T1, Human IBAT (Homo sapiens, UniProt Q12908)
# T1 construct: expressed in transfected cells; cells kept under Puromycin selection
# T1 sequence (Q12908 1-348): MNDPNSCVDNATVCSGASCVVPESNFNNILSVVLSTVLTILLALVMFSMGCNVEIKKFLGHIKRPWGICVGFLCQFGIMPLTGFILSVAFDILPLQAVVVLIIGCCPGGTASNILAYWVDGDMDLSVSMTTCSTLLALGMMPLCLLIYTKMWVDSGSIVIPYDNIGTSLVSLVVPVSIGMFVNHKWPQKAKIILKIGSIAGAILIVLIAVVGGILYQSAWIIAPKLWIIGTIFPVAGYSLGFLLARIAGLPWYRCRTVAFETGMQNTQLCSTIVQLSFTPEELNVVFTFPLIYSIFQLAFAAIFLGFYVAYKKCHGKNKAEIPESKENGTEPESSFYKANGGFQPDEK
# Assay: IBAT (h) assay: 3H-taurocholic acid uptake in human IBAT-overexpressing cells
# Format: cell-based
# Conditions: 0.25 μM 3H-taurocholic acid and 5 μM cold taurocholic acid, 20 minutes, read-out: hIBAT IC50
# Method: 10,000 cells (Human or Mouse IBAT-overexpressing cells) were seeded in 96-wells plate (Corning CLS3809) in 200 μL MEM-alpha medium (Gibco 12571-063) supplemented with 10% FBS (Gibco 10438026) containing Puromycin (Gibco A1113803) (10 μg/mL) and incubated at 37° C. in 5% CO2 for 48 hours. After incubation, media was decanted from the wells and cells were washed two times with 300 μL of basal MEM-alpha medium (FBS-free). After decanting basal MEM-alpha medium each time, plates were tapped against paper towel to ensure maximum removal of residual media. Test inhibitor dilutions (highest test concentration being 10 μM, 3-fold serial dilution, 10 points) prepared in DMSO (Sigma D2650) were added in incubation mix (maintaining 0.2% final DMSO concentration) containing 0.25 μM 3H-taurocholic acid (ARC ART-1368) and 5 μM of cold taurocholic acid (Sigma T4009). 50 μL of incubation mix containing test inhibitors was then added to the wells (in duplicate) and the plates were incubated for 20 minutes in a CO2 incubator at 37° C. After incubation, the reaction was stopped by keeping the plates on ice water mix for 2-3 minutes and then the incubation mix was aspirated completely from the wells. The wells were washed two times with 250 μL of chilled unlabelled 1 mM taurocholic acid dissolved in HEPES (Gibco 15630080)-buffered (10 mM) HBSS (Gibco 14175079) (pH 7.4). The plates were tapped against a paper towel after every wash to ensure maximum removal of blocking buffer.
# 100 μL of MicroScint-20 (PerkinElmer 6013621) was added to the wells and kept overnight at room temperature before reading the plates in TopCount NXT™ Microplate Scintillation and Luminescence Counter from PerkinElmer under 3H Test protocol (set at 120 seconds reading time per well).
# All test compounds were provided in powder form at room temperature. 10 mM DMSO stocks of the test compounds were prepared, aliquoted and stored at −20° C. From the 10 mM DMSO stock of the compounds, a 3-fold serial dilution in DMSO was prepared to get a total of 10 dilutions of the test compounds. 0.5 μL of this dilution in DMSO was added to 250 μL of FBS-free basal media containing 3H-taurocholic acid and cold taurocholic acid to prepare the incubation mixture.
row,SMILES,IC50 [nM]
1,"CCCCC1(CC)CN(c2ccccc2)c2cc(N(C)C)c(OCC(=O)O)cc2S(=O)(=O)C1 (racemic) [Example 7, 2-((3-butyl-7-(dimethylamino)-3-ethyl-1,1-dioxido-5-phenyl-2,3,4,5-tetrahydro-1,5-benzothiazepin-8-yl)oxy)acetic Acid]",14
2,"CCCCC1(CC)CN(c2ccc(O)cc2)c2cc(SC)c(OCC(=O)O)cc2S(=O)(=O)C1 (single isomer, unassigned) [Example 19, 2-((3-butyl-3-ethyl-5-(4-hydroxyphenyl)-7-(methylthio)-1,1-dioxido-2,3,4,5-tetrahydro-1,5-benzothiazepin-8-yl)oxy)acetic Acid]",705
3,"CCCCC1(CC)CN(c2ccc(F)cc2)c2cc(SC)c(OCC(=O)O)cc2S(=O)(=O)C1 (single isomer, unassigned) [Example 16, 2-((3-butyl-3-ethyl-5-(4-fluorophenyl)-7-(methylthio)-1,1-dioxido-2,3,4,5-tetrahydro-1,5-benzothiazepin-8-yl)oxy)acetic acid]",64
4,"CCCCC1(CC)CN(c2ccc(F)cc2)c2cc(SC)c(OCC(=O)O)cc2S(=O)(=O)C1 (racemic) [Example 14, 2-((3-butyl-3-ethyl-5-(4-fluorophenyl)-7-(methylthio)-1,1-dioxido-2,3,4,5-tetrahydro-1,5-benzothiazepin-8-yl)oxy)acetic Acid]",6.4
5,"CCCCC1(CC)CN(c2ccc(O)cc2)c2cc(SC)c(OCC(=O)O)cc2S(=O)(=O)C1 (racemic) [Example 17, 2-((3-butyl-3-ethyl-5-(4-hydroxyphenyl)-7-(methylthio)-1,1-dioxido-2,3,4,5-tetrahydro-1,5-benzothiazepin-8-yl)oxy)acetic Acid]",19
6,"CCCCC1(CC)CN(c2ccc(OC)cc2)c2cc(SC)c(OCC(=O)O)cc2S(=O)(=O)C1 (stereo not shown) [Example 18, 2-((3-butyl-3-ethyl-5-(4-methoxyphenyl)-7-(methylthio)-1,1-dioxido-2,3,4,5-tetrahydro-1,5-benzothiazepin-8-yl)oxy)acetic Acid]",17
7,"CCCCC1(CC)CN(c2ccccc2)c2cc(N(C)C)c(OCC(=O)O)cc2S(=O)(=O)C1 (single isomer, unassigned) [Example 9, 2-((3-butyl-7-(dimethylamino)-3-ethyl-1,1-dioxido-5-phenyl-2,3,4,5-tetrahydro-1,5-benzothiazepin-8-yl)oxy)acetic Acid]",217
